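Assay format: 96-well plates, 48-hour exposure. GI50 is the concentration that inhibits growth by half. TGI: concentration producing complete growth inhibition.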
Legend:
Assay in all cases: NCI-60 cell line screen, 48 h
SNB-75 CNS = test system: SNB-75 CNS
OVCAR-5 ovarian = test system: OVCAR-5 ovarian
MOLT-4 leukemia = test system: MOLT-4 leukemia
NCI-H522 lung = test system: NCI-H522 lung
A549 NSCLC = test system: A549 NSCLC
NCI-H460 lung = test system: NCI-H460 lung
IGROV1 ovarian = test system: IGROV1 ovarian
SNB-19 CNS = test system: SNB-19 CNS
HS 578T breast = test system: HS 578T breast
TK-10 renal = test system: TK-10 renal

Row | SMILES | TGI (SNB-75 CNS) [µM] | TGI (OVCAR-5 ovarian) [µM] | TGI (MOLT-4 leukemia) [µM] | TGI (NCI-H522 lung) [µM] | TGI (A549 NSCLC) [µM] | TGI (NCI-H460 lung) [µM] | GI50 (IGROV1 ovarian) [µM] | TGI (IGROV1 ovarian) [µM] | GI50 (SNB-19 CNS) [µM] | TGI (SNB-19 CNS) [µM] | GI50 (SNB-75 CNS) [µM] | GI50 (HS 578T breast) [µM] | TGI (HS 578T breast) [µM] | GI50 (OVCAR-5 ovarian) [µM] | GI50 (MOLT-4 leukemia) [µM] | GI50 (A549 NSCLC) [µM] | GI50 (NCI-H460 lung) [µM] | TGI (TK-10 renal) [µM] | GI50 (TK-10 renal) [µM] | GI50 (NCI-H522 lung) [µM]
1 | C(=C1/CCCCC([n+]2ccccc2)=N1)/c1ccccc1 | > 100 | > 100 | > 100 | > 100 | > 100 | > 100 |  |  |  |  |  |  |  |  |  |  |  |  |  | 
2 | NC(=O)c1ccc(-c2c3ccccc3cc3c2ccc2ccccc23)cc1 | 9.15 | > 100 | > 100 |  | 24.7 | 14.9 | 7.6 | > 100 | 5.51 | 46.9 | 2.19 | 2 | 7.08 | 14.3 | 5.5 | 4.7 | 3.31 |  |  | 
3 | COc1ccccc1OCC(COC(=O)Nc1ccc(C)cc1)OC(=O)Nc1ccc(C)cc1 (stereo not drawn) | 69.1 | 47.4 | 48.8 | 31.5 | > 100 | 30.3 |  | 60.1 |  | 46.7 |  |  |  |  |  |  |  | 47 |  | 
4 | c1ccc(CN(Cc2ccccn2)Cn2cccn2)nc1 | > 100 |  | > 100 | > 100 | > 100 | > 100 |  |  |  | > 100 |  |  |  |  |  |  |  | > 100 |  | 
5 | N#CC(C#N)=C/C=C/c1cccc([N+](=O)[O-])c1 | 6.28 | 7.96 | 13.6 |  | 16.8 | 2.68 | 0.71 | 9.32 | 3.35 | 16 | 1.73 | 0.325 | 2.75 | 2.24 | 0.391 | 2.29 | 1.21 |  |  | 
6 | N#CC(/C(=N\NC(N)=S)C(=O)NC1C2CC3CC(C2)CC1C3)c1ccc(Cl)cc1 (stereo not drawn) | > 100 | > 100 | > 100 | > 100 | > 100 | > 100 |  | > 100 |  | > 100 |  |  |  |  |  |  |  | > 100 |  | 
7 | C=C1C(=O)C23C(CC(OC(C)=O)C1[C@@H]2OC(C)=O)C1(C)C(OC(C)=O)CCC(C)(C)C1C[C@@H]3OC(C)=O (stereo partly drawn) | 2.89 | 3.27 |  | 1.66 | 3.05 | 3.37 |  | 2.87 |  | 3.31 |  |  |  |  |  |  |  |  |  | 
8 | COC(=N)/C(=C1\OC(N)=C(c2ccc(Cl)cc2)C1=O)c1ccc(Cl)cc1 | > 100 | > 100 | > 100 | > 100 | > 100 | > 100 |  | > 100 |  | > 100 |  |  |  |  |  |  |  | > 100 |  | 
9 | C[P+](C)(CC(F)(F)F)c1ccccc1 | > 100 | > 100 | > 100 | > 100 | > 100 | > 100 |  | > 100 |  | > 100 |  |  |  |  |  |  |  | > 100 |  | 
10 | CCCC/C(C)=N/NC(N)=S | > 100 | > 100 | > 100 | > 100 | > 100 | > 100 |  | > 100 |  | > 100 |  |  |  |  |  |  |  | > 100 |  | 
11 | COc1ccc2c(c1)[n+]([O-])c(-c1ccc(Cl)c(Cl)c1)c(N)[n+]2[O-] | > 100 | > 100 | > 100 | 27.6 | > 100 | > 100 |  | 93.2 |  | > 100 |  |  |  |  |  |  |  |  |  | 
12 | C/C(=N\NC(=S)Nc1ccc([N+](=O)[O-])cc1S(=O)(=O)O)c1ccccn1 | > 100 | > 100 | > 100 |  | > 100 | 69 |  | > 100 |  |  |  |  |  |  |  |  |  | > 100 |  | 
13 | COc1cc(C=NCC(=O)CSC(c2ccccc2)c2ccccc2)cc(OC)c1OC | > 100 | > 100 | 89.9 |  | > 100 | > 100 |  |  | 30 | > 100 | 25.5 | 19 | 59.4 | 63.5 | 6.96 | 7.7 | 13 | 79.1 | 14.5 | 
14 | CCOC(=O)c1cc2cc([N+](=O)[O-])ccc2oc1=O | > 100 | > 100 | > 100 | > 100 | > 100 | > 100 |  | > 100 |  | > 100 |  |  | > 100 |  |  |  |  |  |  | 
15 | COc1cc([N+](=O)[O-])c2ncccc2c1O | 17.2 | > 100 | > 100 |  | 1.74 | > 100 | 4.51 | 25.5 | 3.19 | > 100 | 2.96 | 2.74 | 27.3 | 5.09 | 49.1 | 0.32 | 2.86 | 94.5 | 10.7 | 
16 | OCC1CC2CC1C1(C2)OCCO1 (stereo not drawn) | > 100 | > 100 | > 100 | > 100 | > 100 | > 100 |  | > 100 |  | > 100 |  |  |  |  |  |  |  | > 100 |  | 
17 | Cc1ccc(NC(=O)CCC(=O)C(C#N)c2ccc(Cl)cc2)cc1C (stereo not drawn) | > 100 | > 100 | > 100 | > 100 | > 100 | > 100 |  | > 100 |  | > 100 |  |  |  |  |  |  |  | > 100 |  | 
18 | Nc1nc(Cl)cc(NCCCCCCCCCCNc2cc(Cl)nc(N)n2)n1 | 68.8 | > 100 |  | 11.5 | > 100 | > 100 |  | > 100 |  | > 100 |  |  |  |  |  |  |  | > 100 |  | 
19 | COCCn1cc(-c2csc(-c3c[nH]c4ccc(F)cc34)n2)c2cccnc21 | > 100 | > 100 | > 100 | > 100 | > 100 | > 100 | 3.49 | > 100 | 98 | > 100 | 2.97 | 8.82 | > 100 | 10.1 | 5.56 | 4.51 | 3.38 |  |  | 2.19
20 | COc1cc(C(N)=O)c(OC)c(OC)c1OC | > 100 | > 100 | > 100 | > 100 | > 100 | > 100 |  | > 100 |  | > 100 |  |  |  |  |  |  |  | > 100 |  | 
